Test results reported in PubChem BioAssay AID330 (DTP/NCI, 2004).
“And” between values parts separate entries of the source, which are not always exact repeats. Equal values may be shown once. Inconclusive results and toxic doses are left out.

Test system: P388 leukemia ip, CD2F1 mice, survival T/C
Assay: NCI In Vivo Anticancer Drug Screen. Data for tumor model P388 Leukemia (intraperitoneal) in CD2F1 (CDF1) mice
Details: endpoint: median survival time, higher = longer survival
Method in brief: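 Mice carrying the transplanted tumor received test compound or vehicle. Survival was recorded in each group, and the value is the treated-group measurement divided by that of the vehicle-treated control group.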

[1] = dose: 60.0 mg/kg/injection, schedule: Q01DX005 (ip), vehicle: saline with Tween-80
[2] = dose: 120.0 mg/kg/injection, schedule: Q01DX005 (ip), vehicle: saline with Tween-80
[3] = dose: 50.0 mg/kg/injection, schedule: Q01DX009 (ip), vehicle: saline with Tween-80
[4] = dose: 100.0 mg/kg/injection, schedule: Q01DX009 (ip), vehicle: saline with Tween-80
[5] = dose: 200.0 mg/kg/injection, schedule: Q01DX009 (ip), vehicle: saline with Tween-80
[6] = dose: 400.0 mg/kg/injection, schedule: Q01DX009 (ip), vehicle: saline with Tween-80
[7] = dose: 25.0 mg/kg/injection, schedule: Q01DX009 (ip), vehicle: saline with Tween-80
[8] = dose: 50.0 mg/kg/injection, schedule: Q01DX005 (ip), vehicle: Klucel (hydroxypropylcellulose) (HPC)
[9] = dose: 100.0 mg/kg/injection, schedule: Q01DX005 (ip), vehicle: Klucel (hydroxypropylcellulose) (HPC)
[10] = dose: 200.0 mg/kg/injection, schedule: Q01DX005 (ip), vehicle: Klucel (hydroxypropylcellulose) (HPC)
[11] = dose: 50.0 mg/kg/injection, schedule: Q01DX009 (ip), vehicle: Klucel (hydroxypropylcellulose) (HPC)
[12] = dose: 100.0 mg/kg/injection, schedule: Q01DX009 (ip), vehicle: Klucel (hydroxypropylcellulose) (HPC)
[13] = dose: 200.0 mg/kg/injection, schedule: Q01DX009 (ip), vehicle: Klucel (hydroxypropylcellulose) (HPC)
[14] = dose: 400.0 mg/kg/injection, schedule: Q01DX009 (ip), vehicle: Klucel (hydroxypropylcellulose) (HPC)
[15] = dose: 240.0 mg/kg/injection, schedule: Q01DX005 (ip), vehicle: saline with Tween-80
[16] = dose: 50.0 mg/kg/injection, schedule: Q01DX005 (ip), vehicle: saline with Tween-80
[17] = dose: 100.0 mg/kg/injection, schedule: Q01DX005 (ip), vehicle: saline with Tween-80
[18] = dose: 200.0 mg/kg/injection, schedule: Q01DX005 (ip), vehicle: saline with Tween-80

CCO/C=C1N=C(/C=C/c2ccc(Cl)cc2)OC/1=O
T/C [1]: 91 % of control
T/C [2]: 90 % of control

O=C/C=C/C=O
T/C (dose: 3.13 mg/kg/injection, schedule: Q01DX001 (ip), vehicle: saline with Tween-80): 102 % of control
T/C (dose: 6.25 mg/kg/injection, schedule: Q01DX001 (ip), vehicle: saline with Tween-80): 102 % of control
T/C (dose: 12.5 mg/kg/injection, schedule: Q01DX001 (ip), vehicle: saline with Tween-80): 102 % of control
T/C (dose: 25.0 mg/kg/injection, schedule: Q01DX001 (ip), vehicle: saline with Tween-80): 114 % of control

COC(=O)c1ccccc1N1C(=O)C=CC1=O
T/C (dose: 6.25 mg/kg/injection, schedule: Q04DX003 (ip), vehicle: saline with Tween-80): 92 % of control
T/C (dose: 12.5 mg/kg/injection, schedule: Q04DX003 (ip), vehicle: saline with Tween-80): 92 % of control

COc1ccc(NC(=S)N(C)C)cc1
T/C (dose: 100.0 mg/kg/injection, schedule: Q04DX003 (ip), vehicle: saline with Tween-80): 95 % of control
T/C (dose: 200.0 mg/kg/injection, schedule: Q04DX003 (ip), vehicle: saline with Tween-80): 100 % of control
T/C (dose: 400.0 mg/kg/injection, schedule: Q04DX003 (ip), vehicle: saline with Tween-80): 95 % of control

[Co].[NH-]CCC[NH-].[NH-]CCC[NH-].[NH-]CCC[NH-]
T/C (dose: 25.0 mg/kg/injection, schedule: Q04DX002 (ip), vehicle: saline): 99 % of control
T/C (dose: 50.0 mg/kg/injection, schedule: Q04DX002 (ip), vehicle: saline): 98 % of control
T/C (dose: 100.0 mg/kg/injection, schedule: Q04DX002 (ip), vehicle: saline): 100 % of control

O=C(Nc1ccccc1)OCC1CC1
T/C [3]: 99 % of control
T/C [4]: 115 % of control
T/C [5]: 96 % of control
T/C [6]: 89 % of control

Clc1ccc(/C=N\N=C\c2ccc(Cl)c(Cl)c2)cc1Cl
T/C [7]: 95 % of control
T/C [3]: 100 % of control
T/C [4]: 110 % of control
T/C [5]: 90 % of control
T/C [6]: 90 % of control

O=C1CC2OCC=C3CN4CCC56c7ccccc7N1C5C2C3CC46 (configuration not stated) (tested in a mixture with another compound)
T/C (dose: 0.38 mg/kg/injection, schedule: Q01DX009 (ip), vehicle: saline + alcohol): 100 % of control
T/C (dose: 0.75 mg/kg/injection, schedule: Q01DX009 (ip), vehicle: saline + alcohol): 109 % of control
T/C (dose: 1.5 mg/kg/injection, schedule: Q01DX009 (ip), vehicle: saline + alcohol): 95 % of control

Nc1nc(C2CCCCC2)c(I)c(=O)[nH]1
T/C [8]: 101 % of control
T/C [9]: 103 % of control
T/C [10]: 97 % of control

O=C(NC[N+]12CCO[B-]1(c1ccccc1)OCC2)c1ccccc1O (configuration not stated)
T/C [8]: 106 % of control
T/C [9]: 98 % of control
T/C [10]: 103 % of control

N#CC(Cc1ccccc1)(c1ccccc1)c1ccccc1
T/C [11]: 101 % of control
T/C [12]: 96 % of control
T/C [13]: 93 % of control
T/C [14]: 93 % of control

CC(C)C12OC1CC13OC1C1OC1C1OC132 (configuration not stated)
T/C (dose: 100.0 mg/kg/injection, schedule: Q04DX002 (ip), vehicle: saline with Tween-80): 101 % of control
T/C (dose: 200.0 mg/kg/injection, schedule: Q04DX002 (ip), vehicle: saline with Tween-80): 99 % of control
T/C (dose: 400.0 mg/kg/injection, schedule: Q04DX002 (ip), vehicle: saline with Tween-80): 94 % of control

CC1CC[P+](Cc2ccccc2)(c2ccccc2)CC1 (configuration not stated)
T/C (dose: 1.56 mg/kg/injection, schedule: Q04DX002 (ip), vehicle: saline): 98 % of control
T/C (dose: 3.13 mg/kg/injection, schedule: Q04DX002 (ip), vehicle: saline): 95 % of control
T/C (dose: 6.25 mg/kg/injection, schedule: Q04DX002 (ip), vehicle: saline): 90 % of control

Oc1ccccc1
T/C (dose: 0.12 % in 0.5 ml injection vol, schedule: Q01DX009 (ip), vehicle: water): 103 % of control
T/C (dose: 0.25 % in 0.5 ml injection vol, schedule: Q01DX009 (ip), vehicle: water): 103 % of control
T/C (dose: 0.5 % in 0.5 ml injection vol, schedule: Q01DX009 (ip), vehicle: water): 111 % of control
T/C (dose: 1.0 % in 0.5 ml injection vol, schedule: Q01DX009 (ip), vehicle: water): 118 % of control

Cn1ncc(=O)[nH]c1=O
T/C [8]: 103 % of control
T/C [9]: 98 % of control
T/C [10]: 103 % of control

O=C(/C=C/c1c[nH]c2ccccc12)c1cccc([N+](=O)[O-])c1
T/C [1]: 97 % of control
T/C [2]: 94 % of control
T/C [15]: 92 % of control

Nc1cc2c(cc1Br)-c1c(C(=O)O)cccc1C2O (configuration not stated)
T/C (dose: 50.0 mg/kg/injection, schedule: Q01DX005 (ip), vehicle: sodium bicarbonate): 113 % of control
T/C [1]: 100 % of control and 101 % of control
T/C (dose: 100.0 mg/kg/injection, schedule: Q01DX005 (ip), vehicle: sodium bicarbonate): 123 % of control
T/C [2]: 104 % of control
T/C [15]: 123 % of control
T/C (dose: 480.0 mg/kg/injection, schedule: Q01DX005 (ip), vehicle: saline with Tween-80): 154 % of control

c1cc[n+](CCC2OCCO2)cc1
T/C (dose: 12.5 mg/kg/injection, schedule: Q01DX009 (ip), vehicle: saline): 109 % of control
T/C (dose: 25.0 mg/kg/injection, schedule: Q01DX009 (ip), vehicle: saline): 109 % of control
T/C (dose: 50.0 mg/kg/injection, schedule: Q01DX009 (ip), vehicle: saline): 100 % of control
T/C (dose: 100.0 mg/kg/injection, schedule: Q01DX009 (ip), vehicle: saline): 108 % of control

O=C1C=CC(=O)C(C2OC(=O)C(Cl)=C2Cl)=C1 (configuration not stated)
T/C [16]: 110 % of control
T/C [17]: 104 % of control

O=c1c2ccccc2c(=O)n2c(=O)c3ccccc3c(=O)n12
T/C [11]: 100 % of control
T/C [12]: 100 % of control
T/C [13]: 104 % of control
T/C [14]: 103 % of control

CC(C)(C)/C(O)=C/c1nc2ccc(Cl)cc2[nH]c1=O
T/C (dose: 7.5 mg/kg/injection, schedule: Q01DX005 (ip), vehicle: Klucel + Tween-80): 97 % of control
T/C (dose: 15.0 mg/kg/injection, schedule: Q01DX005 (ip), vehicle: Klucel + Tween-80): 92 % of control
T/C (dose: 30.0 mg/kg/injection, schedule: Q01DX005 (ip), vehicle: Klucel + Tween-80): 88 % of control
T/C (dose: 240.0 mg/kg/injection, schedule: Q01DX005 (ip), vehicle: Klucel + Tween-80): 90 % of control

N#CC(C(N)=O)C(CC(=O)c1ccccc1)c1ccccc1 (configuration not stated)
T/C [8]: 100 % of control
T/C [9]: 102 % of control
T/C [10]: 101 % of control

Cc1sc2c(c1C)c(=O)[nH]c1c(C#N)c(-c3ccc(Cl)cc3)cn12
T/C [1]: 86 % of control and 90 % of control
T/C [2]: 89 % of control
T/C [15]: 94 % of control

C1=CSC(=C2SC=CS2)S1
T/C (dose: 6.25 mg/kg/injection, schedule: Q01DX009 (ip), vehicle: saline with Tween-80): 106 % of control
T/C (dose: 12.5 mg/kg/injection, schedule: Q01DX009 (ip), vehicle: saline with Tween-80): 106 % of control and 97 % of control
T/C [7]: 102 % of control and 110 % of control
T/C [3]: 100 % of control and 106 % of control and 114 % of control
T/C [4]: 108 % of control
T/C [5]: 100 % of control

C/C(=C\Cl)COC1CCCCO1 (configuration not stated)
T/C [3]: 122 % of control
T/C [4]: 122 % of control

CC(C)(C)OC1CCC2=CC(=O)CCC21C (configuration not stated)
T/C (dose: 100.0 mg/kg/injection, schedule: Q04DX002 (ip), vehicle: other): 119 % of control

CCN(CC)c1ncnc2c1nnn2C
T/C [16]: 101 % of control
T/C [17]: 100 % of control
T/C [18]: 107 % of control

Cc1cc(O)c2c(c1)C(=O)C(c1c(O)c3c(C)cccc3oc1=O)=C(c1c(O)c3c(C)cccc3oc1=O)C2=O
T/C (dose: 14.0 mg/kg/injection, schedule: Q01DX005 (ip), vehicle: Klucel (hydroxypropylcellulose) (HPC)): 92 % of control
T/C (dose: 28.0 mg/kg/injection, schedule: Q01DX005 (ip), vehicle: Klucel (hydroxypropylcellulose) (HPC)): 91 % of control
T/C (dose: 56.0 mg/kg/injection, schedule: Q01DX005 (ip), vehicle: Klucel (hydroxypropylcellulose) (HPC)): 89 % of control
T/C (dose: 112.0 mg/kg/injection, schedule: Q01DX005 (ip), vehicle: Klucel (hydroxypropylcellulose) (HPC)): 89 % of control

CN(CO)N=Nc1ccc(C(F)(F)F)cc1
T/C [16]: 96 % of control
T/C [17]: 113 % of control
T/C [18]: 113 % of control
